Literature values as cited in patent US20050095200A1, “Prokinetic drugs assistance to small intestine imaging” (priority 2003, published 2005).
Read-outs that look alike come from different tables or passages of the source. Values belong to the compound of their own block, whether it stands above or below them.

How the values were obtained:
[1] = for half-life: in vivo
[2] = tested on: stomach; conditions: for food emptying half-life from the stomach: oral 15 mg Metoclopramide 30 minutes prior to tagged food; for subjects with barium emptied from the stomach after 60 minutes: 3 minutes after intake of barium
[3] = Medline cross-correlation with 12,155 bleeding publications
[4] = tested on: small intestine
[5] = tested on: duodenum and jejunum
[6] = tested on: healthy subjects; conditions: about 10 mg Cisapride by mouth
[7] = healthy subjects, about 30 mg/day Cisapride by mouth (10x3)
[8] = manometric measurement, intravenous injection of about 10 mg Cisapride

half-life [1]: about 5 hours | absorption when taken orally ([1]; oral): rapid and good | bio-availability ([1]; oral): about 77% | graph of plasma concentration at various times after oral administration ([1]; oral dose of 10 mg): linear
SMILES: CCN(CC)CCNC(=O)c1cc(Cl)c(N)cc1OC [Metoclopramide, AMINO-4 CHLORO-5 N-(DIETHYLAMINO-2 ETHYL) METHOXY-2 BENZAMIDE]
emptying indigestible radio-opaque markers during the first hour ([2]; diabetics with gastroparesis, 10 mg Metoclopramide intravenously): lack of efficiency | mean half-life of stomach emptying ([2]; diabetics with gastroparesis, semi-solid tagged substance, 30 mg Metoclopramide per day (3x10), down from 110): 1.12 h | food emptying half-life from the stomach ([2]; healthy subjects): 1.2 h | subjects with barium emptied from the stomach after 60 minutes ([2]; intravenous 10 mg Metoclopramide): 93.5% | food emptying half-life from the stomach ([2]; patients with reflux esophagitis): 0.993 h | safety profile (intravenous about 10 mg and oral about 20 mg): high safety profile | reports of bleeding from the digestive tract caused by the drug [3]: not a single description of bleeding damage | intensity of segmentary contraction ([4]; about single 20 mg dose of Metoclopramide): may be insufficient

half-life [1]: about 10 hours | bio-availability ([1]; oral): about 40% | cases with abdominal discomfort (in vivo): about 16% | cases with abdominal pain (in vivo): about 4%
SMILES: COc1cc(N)c(Cl)cc1C(=O)NC1CCN(CCCOc2ccc(F)cc2)CC1OC (stereo not drawn) [Cisapride, CIS-4-AMINO-5-CHLORO-N-(1-(4-FLUOROPHENOXY) PROPYL)3 METHOXY-4-PIPERIDINYL)-2 METHOXYBENZAMIDE MONOHYDRATE]
change in the number of waves or in the wavelength [5, 7]: no change | increase of amplitude in mmHg in the duodenum and jejunum [5, 7]: over 18.4% | contraction amplitude in the jejunum increased by [5, 8]: about 43% | contraction frequency [5, 8]: increased | stomach emptying t1/2 ([2]; about 10 mg Cisapride by mouth): about 78 min | stomach emptying time, effect ([2]; about 10 mg Cisapride by mouth): not affected | emptying indigestible radio-opaque markers during the first hour ([2]; diabetics with gastroparesis, 5 mg Cisapride intravenously): lack of efficiency | subjects with barium emptied from the stomach after 60 minutes ([2]; intravenous 8 mg Cisapride): 85% | decrease of transit time of solid food [6]: about 20% | reports of bleeding from the digestive tract caused by the drug [3]: not a single report of bleeding from the digestive tract caused by Cisapride | intensity of segmentary contraction ([4]; daily dose of about 10 to 15 mg Cisapride): may be insufficient
